Data from patent US20130344065A1, “Combination Treatment with VEGF-C Antagonists” (Vegenics Pty Ltd, priority 2010, published 2013).
Entries after “also recorded” stand apart in the source; their conditions may differ.

Experiments:
[1] = molecular target: T1, VEGF-C (Homo sapiens, UniProt P49767); assay: Direct binding ELISA / BiaCore affinity of VGX-100; conditions: capture antigens VEGF-C, VEGF-D or VEGF
T1 construct: purchased R&D Systems
T1 sequence (P49767 112-227): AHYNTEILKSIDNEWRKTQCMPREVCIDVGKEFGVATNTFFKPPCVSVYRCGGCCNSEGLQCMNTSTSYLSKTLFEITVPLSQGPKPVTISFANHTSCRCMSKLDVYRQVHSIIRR
Method: VEGF-C antibody VGX-100 was assessed by a direct binding ELISA using VEGF-C, VEGF-D or VEGF (R&D Systems) as capture antigens and bound VGX-100 detected with rabbit anti-human IgG-HRP (Abcam).

[2] = molecular target: T2, VEGF-C binding to the extracellular domain of VEGFR-2 (Homo sapiens, UniProt P49767); assay: Ba/F3-VEGFR-2 bioassay of VEGF-C binding; format: cell-based; conditions: [3H]thymidine incorporation, 48 hrs
T2 construct: expressed in transfected cells; host or cells: Ba/F3 cells (BA/F3-VEGFR-2)
T2 sequence (P49767 112-227 limits assumed): T1 sequence (P49767 112-227)
Method: (§1) The binding of VEGF-C to the extracellular domain of VEGFR-2 or VEGFR-3 was measured using BA/F3-VEGFR-2 or -3/EpoR cells. The response to ligands and VGX-100 was measured by [^3H]-thymidine incorporation following exposure for 48 hrs.
(§2) Bioassays to measure the binding of VEGF-C to the extracellular domain of VEGFR-2 or VEGFR-3 were performed with BA/F3-VEGFR-2 or BA/F3-VEGFR-3/EpoR cells. The response to ligands and VGX-100 was measured by [^3H] thymidine incorporation following exposure for 48 hrs.

[3] = molecular target: T3, VEGF-C binding to the extracellular domain of VEGFR-3 (Homo sapiens, UniProt P49767); assay: Ba/F3-VEGFR-3/EpoR bioassay of VEGF-C binding; format: cell-based; conditions: [3H]thymidine incorporation, 48 hrs
T3 construct: expressed in transfected cells; host or cells: Ba/F3 cells (BA/F3-VEGFR-3/EpoR)
T3 sequence (P49767 112-227 limits assumed): T1 sequence (P49767 112-227)
Method: as §1, §2

[4] = tested on: VEGF-C stimulated HUVEC proliferation; assay: HUVEC proliferation assay; format: cell-based; conditions: 48 hrs, WST-1
Method: HUVEC proliferation assays were conducted for 48 hrs and cell number measured with WST-1 reagent (Roche).

[5] = tested on: PC-3 human prostate tumors (xenograft); assay: Subcutaneous PC-3 xenograft, single therapy (Example 2); format: in vivo, nude mice
Method: Cells were implanted into 80 mice. […] The treatment with drugs began on the day after randomization. […] At the end of the experiment, statistical analysis was performed on the tumor growth rate of each treatment group versus that of the control.

[6] = tested on: U87MG human glioblastoma tumors; assay: U87MG glioblastoma xenograft, combination (Example 7); format: in vivo, nude mice; conditions: VGX-100 40 mg/kg, bevacizumab 10 mg/kg, administered alone
Method: This experiment was conducted broadly in accordance with Example 3, except that U87MG glioblastoma cells were substituted for PC-3 prostate cancer cells. Cells from a human glioblastoma tumor line (U87MG) were implanted subcutaneously into mice and grown until the tumors reached an average size of approximately 150 mg. […] There were 10 animals per treatment group.

[7] = tested on: PC-3-GFP human prostate tumors; assay: PC-3-GFP orthotopic MetaMouse model (Example 13); format: in vivo
Method: PC-3-GFP human prostate cancer orthotopic MetaMouse® model was conducted by AntiCancer Inc. PC-3-GFP tumor fragments were surgically implanted between the ventral lobes of the prostate and closed by suture. Treatment was started three days after surgery (60 mg/kg, 3×/week, IP). Whole body imaging of GFP-expressing tumors was performed once a week in live animals after GFP-visible tumors were established. Primary tumor sizes were estimated once a week by caliper measurement and tumor volume (mm^3) calculated by the formula (L×W2)/2. Details of the study are as follows:
Male NCr nu/nu mice, 5-6 weeks old, were used in the study. Original breeding pairs were purchased from Taconic, Germantown, N.Y. Test animals were bred and maintained in a HEPA filtered environment for the experiment. Cages, food and bedding were autoclaved. The animal diets were obtained from PMI Nutrition International Inc. (Brentwood, Mo.).
Vehicle, VGX-100 and Isotype were kept at −20° C. until use. VGX-100 and Isotype were diluted with PBS to proper concentration (7.5 mg/ml and 7.5 mg/ml) before use.
Tumor stocks were made by subcutaneously injecting PC-3-GFP cells at a concentration of 5×10^6 cells/100 μl into the flank of nude mice. The tumor tissues harvested from s.c. growth in nude mice were inspected and any grossly necrotic or suspected necrotic or non-GFP tumor tissues were removed. Tumor tissues were subsequently cut into small fragments of approximately 1 mm^3.
The animals were anesthetized with the mixture of Ketaset, Xylazine and PromAce and the surgical area was sterilized using iodine and alcohol. An incision approximately 2 cm long was made in the lower abdomen of the nude mouse using a sterile scalpel and blade (#10). The prostate was exposed and the capsule of the prostate was carefully opened. Two fragments (1 mm^3 each) of PC-3-GFP tissue were sutured between two ventral lobes of the prostate with sterile 8-0 surgical suture (nylon). The abdomen was closed in one layer with sterile 6-0 surgical sutures (silk). All procedures were carried out under a 5× dissecting microscope under HEPA filtered laminar flow hoods.
Treatment in both groups was started three days after SOI.
The FluorVivo imaging system (INDEC Biosystems, Santa Clura, Calif.) was used for whole body imaging. Whole body optical imaging of GFP-expressing tumors was performed once a week in live animals after GFP-visible tumors were established. At necropsy, open imaging was performed in the thoracic and abdomen for inspection of metastasis to the lymph nodes.
Tumor size and body weight measurement: Primary tumor sizes and body weights were measured once a week by using a calipers and an electronic scale, respectively. Primary tumor sizes were estimated once a week by measuring the perpendicular minor dimension (W) and major dimension (L). Approximate tumor volume (mm^3) was calculated by the formula (W2×L)×1/2.
All the animals were sacrificed at day 30 after treatment initiation.
Primary tumor was excised and weighed at necropsy.
The Student's t-test with α equal to 0.05 was used to compare the mean tumor volume and tumor weight among the experimental groups.

[8] = tested on: KP4 human pancreatic tumors; assay: KP4 pancreatic xenograft (Example 8); conditions: for % T/C: after 30 days
Method: VGX-100 was administered at 20 or 40 mg/kg for single therapy and at 40/mg/kg for combination therapy.
To initiate the study, 5×10^6 of KP4 cells suspended in 100 μl of a mixture of medium/Matrigel (1:1) were subcutaneously implanted to the nude mice in the right flank region. Cancer cells were implanted into 90 mice. Animals were monitored for tumor growth daily after cell implantation. When tumor volumes reached 80-100 mm^3, mice were randomized into 5 groups of 10 mice each using only mice having tumor volumes closest to the mean value. Mice with tumor volumes too big or too small were excluded from the study. Tumor volumes were measured using the formula V=L×W×H×π/6, where L and W represented the longer and shorter diameters of the tumor and H represented the height of the tumor. The treatment with drugs was initiated on the day after randomization. […] All treatments were administered intraperitoneally twice weekly for 30 days.
Throughout the entire study, tumor volumes were measured twice weekly and body weights once weekly. […] Unscheduled sacrifices were performed if tumor volumes reached>2,000 mm^3, animals lost>25% of their original body weights, tumor ulceration appeared, or mice became moribund. At the end of the experiment, tumors were removed, embedded in Optimal Cutting Temperature (OCT), and stored at −80° C. for IHC analysis. Gross examination was conducted on liver, lung, spleen, kidneys, testes, and prostate. If no abnormal observation was detected on these organs, the tissues were discarded.
Tumor size was measured 2-3 times weekly with calipers. Size of tumors relative to controls is calculated after 30 days of treatment.

[9] = tested on: U87MG glioblastoma tumors (xenograft); assay: U87MG glioblastoma xenograft, single agent (Example 6)
Method: Antibodies were administered twice per week by intraperitoneal injection.
To initiate the study, 5×10^6 of U-87 cells suspended in 100 μl of a mixture of medium/Matrigel (1:1) were subcutaneously implanted to the nude mice in the right flank region. Cancer cells were planted into 80 mice. Animals were monitored for tumor growth daily after cell implantation. When tumor volumes reached 80-100 mm^3, mice were randomized into 5 groups of 10 mice each using only mice having tumor volumes closest to the mean value. Mice with tumor volumes too big or too small were excluded from the study. Tumor volumes were measured using the formula V=L×W×H×π/6, where L and W represented the longer and shorter diameters of the tumor and H represented the height of the tumor. The treatment with drugs was initiated on the day after randomization. […] The treatment was carried out twice weekly for 27 days. Throughout the entire study, tumor volumes were measured twice weekly and body weights once weekly. […] Unscheduled sacrifices were performed if tumor volumes reached>1,500 mm^3, animals lost>25% of their original body weights, tumor ulceration appeared, or mice became moribund.

[10] = VGX-100 10 and 20 mg/kg IP twice weekly
[11] = VGX-100 40 mg/kg and/or Avastin 10 mg/kg

Substance: VGX-100: VEGF-C antibody; heavy chain SEQ ID NO: 3, light chain SEQ ID NO: 4
- Binding selectivity in direct binding ELISA [1]: selectively recognized and bound to VEGF-C
- Blocking of VEGF-C binding to VEGFR-2 [2]: blocked VEGF-C binding
- Blocking of VEGF-C binding to VEGFR-3 [3]: blocked VEGF-C binding
- Inhibition of VEGF-C stimulated HUVEC proliferation [4]: inhibited VEGF-C stimulated HUVEC proliferation
- Tumor volume response ([5]; VGX-100 40 mg/kg IP twice weekly, 40 mg/kg): significant single-agent activity; also recorded: efficacy equivalent to bevacizumab at 10 mg/kg
- Tumor volume response [5, 10]: improved over the negative control
- Effect on tumor growth [6]: no significant effect
- Reduction of incidence of metastasis to local lymph nodes vs control ([7]; 60 mg/kg IP): 55%
- Toxicity / body weight ([7]; 60 mg/kg IP 3x/week): no obvious toxicity; also recorded: No acute body weight loss
- Metastatic incidence to lymph nodes vs control ([7]; FOTI, Fisher's exact test): significant difference in metastatic incidence
- # of animals with lymph node (LN) mets ([7]; FOTI, of 19 analyzed animals, 60 mg/kg IP): 6
- Animals with lymph node (LN) mets, percent ([7]; FOTI, 60 mg/kg IP): 32%
- Tumor volume vs isotype control ([7]; day 28): statistically significant reduction
- Reduction of mean tumor volume vs isotype control ([7]; day 28, 60 mg/kg IP): 59%
- Mean tumor volume (mm^3) mean ± SE ([7]; day 28 after treatment, caliper, 60 mg/kg IP 3x/week): 176.8 ± 183.2 mm^3
- Tumor weight vs isotype control ([7]; day 30): A statistically significant reduction was not observed
- Mean tumor weight (g) mean ± SE ([7]; day 30 after treatment, 60 mg/kg IP): 0.95 ± 0.45 g
- Mean Tumor Vol. at D30 (mm3) ([8]; VGX-100 20 mg/kg): 1492.77 mm3
- Mean Tumor Vol. at D30 (mm3) [8, 11]: 693.24 mm3
- Mean Tumor Vol. at D30 (mm3) ([8]; VGX-100 60 mg/kg): 958.93 mm3
- % T/C ([8]; VGX-100 20 mg/kg): 76.0%
- % T/C [8, 11]: 35.3%
- % T/C ([8]; VGX-100 60 mg/kg): 48.8%
- Tumor growth vs vehicle control ([9]; VGX-100 40 mg/kg IP twice weekly): significantly inhibited tumor growth
- Tumor volume response [9, 10]: improved over the negative control
